Measurements from PubChem BioAssay AID278 (DTP/NCI, 2004).
Where “and” joins values, the source holds several entries; their conditions need not be identical. Identical values can stand only once. Records with an inconclusive call do not appear. Residues, ends and D or L forms follow the SMILES beside them. *: point of attachment. Trt = c1ccc(C(c2ccccc2)(c2ccccc2)*)cc1; Cbz = O=C(OCc1ccccc1)*; Bn = c1ccc(C*)cc1; βAla = NCCC(=O)O

Test system: nude mice, A549 intrarenal xenograft, tumor weight change
Experiment: NCI In Vivo Anticancer Drug Screen. Data for tumor model A549 Human Adenocarcinoma of Lung with characteristics of Type II Alveolar Epithelial cells (intrarenal inoculation) in NU/NU BALB/C (nude) mice
Conditions: endpoint: mean tumor weight change, schedule: Q04DX003 (ip), higher = larger tumour
Description: The antitumor activity of compounds was measured in mice bearing transplantable tumors. Survival or tumor size were measured and the results are expressed as the measurement made in the treated group (T) divided by the measurement made in the vehicle treated control group (C). The tumor model used in this assay is A549 Human Adenocarcinoma of Lung with characteristics of Type II Alveolar Epithelial cells (intrarenal inoculation) in NU/NU BALB/C (nude) mice

[1] = dose: 37.5 mg/kg/injection, vehicle: saline with Tween-80
[2] = dose: 75.0 mg/kg/injection, vehicle: saline with Tween-80
[3] = dose: 150.0 mg/kg/injection, vehicle: saline with Tween-80
[4] = dose: 300.0 mg/kg/injection, vehicle: saline with Tween-80
[5] = dose: 12.5 mg/kg/injection, vehicle: saline with Tween-80
[6] = dose: 25.0 mg/kg/injection, vehicle: saline with Tween-80
[7] = dose: 50.0 mg/kg/injection, vehicle: saline
[8] = dose: 200.0 mg/kg/injection, vehicle: saline
[9] = dose: 100.0 mg/kg/injection, vehicle: saline
[10] = dose: 50.0 mg/kg/injection, vehicle: water
[11] = dose: 100.0 mg/kg/injection, vehicle: water

c1cn[nH]c1
T/C (dose: 113.9 mg/kg/injection, vehicle: saline): 93 % of control
T/C (dose: 151.9 mg/kg/injection, vehicle: saline): 47 % of control
T/C (dose: 202.5 mg/kg/injection, vehicle: saline): 63 % of control
T/C (dose: 300.0 mg/kg/injection, vehicle: saline): 46 % of control

CCCC1CCC(=C2C(=O)CCC2=O)O1 (configuration not stated)
T/C [1]: 247 % of control
T/C [2]: 68 % of control
T/C [3]: 109 % of control
T/C [4]: 50 % of control

Cc1ccc(NN=O)nc1
T/C (dose: 5.0 mg/kg/injection, vehicle: water): 79 % of control
T/C (dose: 10.0 mg/kg/injection, vehicle: water): 81 % of control
T/C (dose: 20.0 mg/kg/injection, vehicle: water): 61 % of control
T/C (dose: 40.0 mg/kg/injection, vehicle: water): 33 % of control

Cc1c2ccccc2c(C)c2c1cc(C(=O)O)c1ccccc12
T/C [1]: 150 % of control
T/C [3]: 113 % of control
T/C [4]: 85 % of control

O=S(=O)(CCCCl)SCCCCl
T/C (dose: 40.0 mg/kg/injection, vehicle: suspension in saline): 81 % of control
T/C (dose: 80.0 mg/kg/injection, vehicle: suspension in saline): 86 % of control
T/C (dose: 160.0 mg/kg/injection, vehicle: suspension in saline): 105 % of control
T/C (dose: 320.0 mg/kg/injection, vehicle: suspension in saline): 112 % of control

CCOC(=O)/N=[N+](\[O-])c1ccccc1
T/C [5]: 156 % of control
T/C [6]: 245 % of control
T/C (dose: 50.0 mg/kg/injection, vehicle: saline with Tween-80): 217 % of control

O=C(/C=C/c1cccnc1)/C=C/c1cccnc1
T/C (dose: 12.5 mg/kg/injection, vehicle: Klucel (hydroxypropylcellulose) (HPC)): 91 % of control
T/C (dose: 100.0 mg/kg/injection, vehicle: Klucel (hydroxypropylcellulose) (HPC)): 54 % of control

O=C(Oc1ccccc1)c1cc(O)c(O)c(O)c1
T/C (dose: 18.75 mg/kg/injection, vehicle: saline): 60 % of control
T/C (dose: 37.5 mg/kg/injection, vehicle: saline): 80 % of control
T/C (dose: 75.0 mg/kg/injection, vehicle: saline): 50 % of control
T/C (dose: 150.0 mg/kg/injection, vehicle: saline): 62 % of control

CN(C)C(=O)Nc1ccc(Cl)cc1
T/C (dose: 150.0 mg/kg/injection, vehicle: suspension in saline): 120 % of control
T/C (dose: 300.0 mg/kg/injection, vehicle: suspension in saline): 74 % of control
T/C (dose: 600.0 mg/kg/injection, vehicle: suspension in saline): 112 % of control

S=C1CCCCN1
T/C (dose: 75.0 mg/kg/injection, vehicle: distilled water + Tween-80 + alcohol): 86 % of control
T/C (dose: 150.0 mg/kg/injection, vehicle: distilled water + Tween-80 + alcohol): 69 % of control

O=C1C(=O)c2cccnc2-c2ncccc21
T/C (dose: 1.25 mg/kg/injection, vehicle: Klucel (hydroxypropylcellulose) (HPC)): 59 % of control
T/C (dose: 2.5 mg/kg/injection, vehicle: Klucel (hydroxypropylcellulose) (HPC)): 55 % of control
T/C (dose: 10.0 mg/kg/injection, vehicle: Klucel (hydroxypropylcellulose) (HPC)): 6 % of control

Cc1ccc2c(c1)n([O-])c1cc(Cl)ccc1[n+]2=O
T/C (dose: 35.0 mg/kg/injection, vehicle: saline with Tween-80): 102 % of control
T/C (dose: 70.0 mg/kg/injection, vehicle: saline with Tween-80): 65 % of control
T/C (dose: 140.0 mg/kg/injection, vehicle: saline with Tween-80): 108 % of control
T/C (dose: 280.0 mg/kg/injection, vehicle: saline with Tween-80): 94 % of control

O=C(Nc1cc(Cl)ccc1C(=O)O)c1cccc(C[n+]2ccccc2)c1
T/C [3]: 161 % of control
T/C [4]: 86 % of control
T/C (dose: 600.0 mg/kg/injection, vehicle: saline with Tween-80): 20 % of control

Nc1ccc(S(=O)(=O)Nc2cnc3c(Cl)cccc3n2)cc1
T/C (dose: 220.0 mg/kg/injection, vehicle: saline): 70 % of control
T/C (dose: 315.0 mg/kg/injection, vehicle: saline): 53 % of control
T/C (dose: 450.0 mg/kg/injection, vehicle: saline): 43 % of control
T/C (dose: 642.9 mg/kg/injection, vehicle: saline): 52 % of control

[CH3][Sn]([CH3])([Cl])[c]1cc[c]([Sn]([CH3])([CH3])[Cl])cc1
T/C (dose: 1.25 mg/kg/injection, vehicle: saline): 84 % of control
T/C (dose: 2.5 mg/kg/injection, vehicle: saline): 160 % of control
T/C (dose: 5.0 mg/kg/injection, vehicle: saline): 70 % of control

COc1ccc(C=C(C(=O)CCN(C)C)C(=O)CCN(C)C)cc1
T/C [7]: 96 % of control
T/C [8]: 101 % of control

CCOc1cc2c(cc1C(C)c1ccc(OC)cc1)OCO2 (configuration not stated)
T/C (dose: 54.0 mg/kg/injection, vehicle: distilled water + alcohol): 67 % of control
T/C (dose: 90.0 mg/kg/injection, vehicle: distilled water + alcohol): 48 % of control
T/C (dose: 250.0 mg/kg/injection, vehicle: distilled water + alcohol): 4 % of control

C=CCNC(=O)c1ccccc1SC(C)=O
T/C [2]: 104 % of control
T/C [3]: 94 % of control
T/C [4]: 96 % of control
T/C (dose: 450.0 mg/kg/injection, vehicle: saline with Tween-80): 61 % of control

COC(=O)C(CSC(c1ccccc1)(c1ccccc1)c1ccccc1)NC(=O)C(CSCc1ccccc1)NC(=O)CCNC(=O)OCc1ccccc1 (configuration not stated) ({Cbz-βAla}-Cys(Bn)-Cys(Trt)-OMe; configuration not given here)
T/C (dose: 100.0 mg/kg/injection, vehicle: Klucel + Tween-80): 153 % of control
T/C (dose: 200.0 mg/kg/injection, vehicle: Klucel + Tween-80): 112 % of control
T/C (dose: 400.0 mg/kg/injection, vehicle: Klucel + Tween-80): 161 % of control
T/C (dose: 800.0 mg/kg/injection, vehicle: Klucel + Tween-80): 109 % of control

CC(C)N1C(=O)N(Cl)C2C1N(Cl)C(=O)N2Cl (configuration not stated)
T/C [5]: 51 % of control and 76 % of control
T/C [6]: 18 % of control

COC1=C(OC)C(=O)C(N(C)C)=C(CO)C1=O
T/C [7]: 123 % of control
T/C [9]: 173 % of control

CC1=C[P+](c2ccccc2)(c2ccccc2)C=C(c2ccccc2)O1
T/C (dose: 1.0 mg/kg/injection, vehicle: suspension in saline): 94 % of control
T/C (dose: 2.0 mg/kg/injection, vehicle: suspension in saline): 89 % of control
T/C (dose: 8.0 mg/kg/injection, vehicle: suspension in saline): 80 % of control

O=NNc1cccnc1
T/C [10]: 56 % of control and 75 % of control
T/C [11]: 80 % of control

Nc1nc(Br)nc2c1ncn2C1CC(O)C(CO)O1 (configuration not stated)
T/C (dose: 25.0 mg/kg/injection, vehicle: saline): 92 % of control
T/C [7]: 121 % of control
T/C [9]: 96 % of control
T/C [8]: 74 % of control

COc1ccc2c(c1)-c1nn(CCCN(C)C)c3ccc([N+](=O)[O-])c(c13)N2
T/C (dose: 12.5 mg/kg/injection, vehicle: water): 61 % of control
T/C (dose: 25.0 mg/kg/injection, vehicle: water): 81 % of control
T/C [10]: 14 % of control
T/C [11]: 27 % of control

CCCCCCCCCCCCCCCCCCOCC(CO)OC (configuration not stated)
T/C [3]: 47 % of control and 53 % of control
T/C [4]: 56 % of control and 73 % of control
